{
  "source": "patent US7575882B2",
  "about": "“Compositions and methods for identifying modulators of TRPV2” (Janssen Pharmaceutica N. V., priority 2005, dated 2009)",
  "key": {"[1]": {"system": "untransfected HEK293 cells", "test": "Whole-cell patch clamp, untransfected HEK293 cells (control)", "type": "cell-based", "conditions": "100 μM; data not shown", "procedure": "To further confirm the Δ^9-THC effect on TRPV2, whole-cell patch clamp studies were performed. The extracellular solution contained (in mM): NaCl, 132; CaCl, 1.8; KCl, 5.4; MgCl2, 0.8; HEPES, 10; glucose, 10; pH=7.4. The intracellular solution used to fill recording pipettes contained (in mM): CsCl, 145; EGTA, 5; HEPES, 10; glucose, 5; pH=7.4. Recordings were performed using the conventional whole-cell patch clamp technique, 2-3 days after transient transfection of human TRPV2 into HEK293 cell or 1-2 days after plating HEK293 cells stably expressing rat TRPV2 onto glass coverslips. Currents were amplified by a patch clamp amplifier and filtered at 2 kHz (Axopatch 200B), sampled at 10 kHz using Digidata 1322A and acquired and analyzed with pClamp 9.0 (all instruments from Molecular Devices, CA). A 600 ms voltage ramp was given once every five seconds from −100 mV to +60 mV. The holding potential between voltage ramps was −100 mV. Extracellular solutions were applied to the cell at 0.5 ml/min via a gravity-fed perfusion system. All experiments were performed at 22° C."}, "rat TRPV2": {"molecular_target": "T1, rat TRPV2 (Rattus norvegicus, UniProt Q9WUD2, A713V/L151P/T158I)", "T1 construct": "A cDNA fragment encoding the full-length rat TRPV2 was subcloned into pCI-neo; expressed in transfected cells", "T1 sequence (Q9WUD2 1-761 L151P/T158I/A713V)": "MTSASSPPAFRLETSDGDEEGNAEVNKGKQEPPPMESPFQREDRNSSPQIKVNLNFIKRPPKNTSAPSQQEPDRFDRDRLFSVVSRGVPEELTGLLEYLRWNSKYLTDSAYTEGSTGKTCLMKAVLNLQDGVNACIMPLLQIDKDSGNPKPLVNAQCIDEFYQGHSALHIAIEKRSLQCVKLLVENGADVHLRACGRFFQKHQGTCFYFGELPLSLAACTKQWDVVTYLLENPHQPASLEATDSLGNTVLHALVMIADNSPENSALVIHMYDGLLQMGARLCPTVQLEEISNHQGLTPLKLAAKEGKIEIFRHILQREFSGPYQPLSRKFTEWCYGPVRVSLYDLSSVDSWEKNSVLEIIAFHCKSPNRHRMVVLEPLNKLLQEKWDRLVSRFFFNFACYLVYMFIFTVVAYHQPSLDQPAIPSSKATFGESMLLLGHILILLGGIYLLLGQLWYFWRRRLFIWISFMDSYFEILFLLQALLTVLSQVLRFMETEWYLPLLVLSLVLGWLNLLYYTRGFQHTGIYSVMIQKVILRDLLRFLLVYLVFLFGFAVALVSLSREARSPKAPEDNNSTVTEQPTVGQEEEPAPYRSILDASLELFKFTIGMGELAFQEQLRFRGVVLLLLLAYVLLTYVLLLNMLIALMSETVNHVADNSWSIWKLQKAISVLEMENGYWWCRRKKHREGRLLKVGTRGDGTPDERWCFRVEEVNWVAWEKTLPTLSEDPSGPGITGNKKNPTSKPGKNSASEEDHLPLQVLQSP", "test": "FLIPR calcium mobilization assay in rat TRPV2-expressing HEK293 cells", "type": "cell-based", "procedure": "A cDNA fragment encoding the full-length rat TRPV2 was subcloned into pCI-neo (Promega, Madison, Wis.) mammalian expression vector. The expression construct was then transfected into HEK293 cells with FuGene6 transfection reagent (Roche, Indianapolis, Ind.) according to the vendor's protocol. Stable cell lines were selected by growth in the presence of 400 μg/ml G418. Single G418 resistant clones were isolated and purified.\nThe rat TRPV2-expressing HEK293 cells were seeded in a 384-well plate at a concentration of 5×10^3 cells/well and incubated overnight at 37° C. The following day, the cells were loaded with buffer and calcium dye 3 (Molecular Devices, Sunnyvale, Calif.) in a final volume of 50 μl and incubated for 30 minutes at 37° C./5% CO2 followed by 30 additional minutes at room temperature. The fluorescence intensity was measured by a fluorescent plate reader (FLIPR) before, during and after the addition of test compounds.\nAll data was normalized to that observed for 100 μM Δ^9-THC."}},
  "note": "Where “and” joins values, the source holds several entries; their conditions need not be identical. Identical values can stand only once.",
  "data": [
    {"substance": "Delta-9-tetrahydrocannabinol [Δ^9-THC]", "values": [
      {"measurement": "current above control level in untransfected HEK293 cells", "setting": "[1]", "value": "no current above control level"},
      {"measurement": "elevation of intracellular Ca2+ in rat TRPV2-expressing HEK293 cells", "setting": "rat TRPV2; 100 μM", "value": "robust elevation of intracellular Ca^2+"},
      {"measurement": "% Response (activation of rat TRPV2)", "setting": "rat TRPV2; 100 μM compound (anandamide 120 μM), normalized to 100 μM Δ^9-THC", "value": 100, "unit": "%"},
      {"measurement": "Hill slope of rat TRPV2 activation", "setting": "rat TRPV2; FLIPR concentration-response, FIG. 4B", "value": 1.04},
      {"measurement": "EC50", "setting": "rat TRPV2; FLIPR, rat TRPV2-expressing HEK293 cells, read-out: EC50 (activation of rat TRPV2)", "value": "15.7 µM and 15.5 µM"}
    ]}
  ]
}
